Measurements taken from article PMC11032351, “Epigenetic modulation through BET bromodomain inhibitors as a novel therapeutic strategy for progranulin-deficient frontotemporal dementia” (Scientific Reports, 2024).
Where a SMILES comes first, the peptide text is derived from it. [ ]: non-standard residue; d: D form. ξ: configuration not given here. Aoe(9ξ) = N[C@@H](CCCCCC(=O)C1CO1)C(=O)O; dPip = O=C(O)[C@H]1CCCCN1

Columns and labels:
[1] = tested on: GRN mRNA; test: qPCR of GRN mRNA in human NPCs (enhancer screen and follow-up); type: cell-based; details: human NPCs, 24 h, relative to DMSO
Experimental: All compounds were purchased from commercial vendors. All compounds were made at 1000 × stocks in DMSO (Sigma Aldrich #D2438), except for sodium valproate, which was dissolved in ddH2O. NPCs and neurons were generated and maintained as described above. For treatment, the stock compounds were diluted 1:1000 in NPC media (final DMSO concentration 0.1%), which was then applied to confluent NPCs or 18-day differentiated neurons derived from confluent NPC cultures for indicated time periods.
RNA was generated from each well of a 6-well treated plate of NPCs or neurons. First, media from each well was aspirated, and washed with 1 mL of dPBS. Wells were then lysed with 1 mL TRIzol Reagent (ThermoFisher #11,596,026). Wells were then incubated at room temperature for 5 min, and then RNA was extracted using the DirectZol RNA MiniPrep Kit (Zymo Research #R2052). RNA was stored at − 80 °C until further use. cDNA was generated using the High-Capacity cDNA synthesis Kit with RNase inhibitor (ThermoFisher #4,368,814) using 1000–1200 ng RNA per reaction. cDNA was either used immediately or stored at -20 °C until use, where it was then diluted 1:4 with DNase/RNase-free water (Invitrogen #10,977–015).
qPCR was conducted using the Roche 480 Light Cycler in a 384-well plate. To each well was added 5 μL of TaqMan 2X Gene Expression Master Mix (ThermoFisher #4,369,510), 0.5 μL of 20X TaqMan primer probe (ThermoFisher, GRN: Hs00963707_g1, GAPDH: Cat.#432924E), 0.5 μL of DNase/RNase-free H2O, and 4 μL of above diluted cDNA. Results were normalized to GAPDH, and replicate mean values and standard error of the mean are reported.

[2] = tested on: PGRN-Luc; test: HMC3 PGRN-luciferase reporter assay; type: cell-based, human; details: HMC3 PGRN-Luc cells, 20 h
Experimental: HMC3 PGRN-Luc cells were trypsinized from confluent T-75 flasks and re-suspended in HMC-3 media at 150,000–200,000 cells/mL. 30 µL of cell suspension was then seeded onto each well of black, 384-well clear-bottom plates (Corning 3712) using the Multidrop Combi (Thermo Fisher). Cells were allowed to adhere to plates in the incubator at 37 °C/5% CO2 for 6–8 h. After 6–8 h, compounds were added to each well using the D300e (Tecan) compound dispenser, and all wells were DMSO-normalized (0.3%). Cells were allowed to incubate with compounds for indicated timeframes.
Plates were removed from the incubator and allowed to cool to RT. 15 µL of media was removed from each well using a multichannel pipette and added to separate Corning 3712 plates for a read of “secreted” PGRN. To both the media-containing plates as well as the cell-containing plates (with 15 µL media remaining) is then added 15 µL of active luminescence reagent (Thermo 18,636) which was generated according to manufacturer’s instructions. Plates were allowed to nutate at RT for 15 min prior to reading using the EnVision (PerkinElmer). For calculation of the internal PGRN-Luc signal, the secreted signal (15 µL media) was subtracted from the signal of the cell-containing plates (with 15 µL media remaining). For “total” PGRN-Luc signal, a sample of media was not aliquoted into a separate plate, and instead, 30 µL of active luminescence reagent was added directly to each well.
For the mivebresib and panobinostat time-course experiment, the above procedure was followed, with the exception that cells were seeded at 66,600 cells/mL in 30 µL media, and allowed to grow overnight prior to compound addition for the indicated timeframes.

[3] = tested on: PGRN protein levels; test: PGRN quantification (Jess) in human NPCs; type: cell-based; details: 24 h; for enhancement of PGRN protein levels: 100 nM
Experimental: PGRN capillary gel electrophoresis experiments were performed using Jess (Bio-Techne) and data were processed and analyzed using Compass for Simple Western software (version 6.0). Runs were conducted using EZ Standard Pack 1 12-230 kDa (Bio-Techne PS-ST01EZ-8), 12-230 kDa pre-filled plates (PS-PP03), 12-230 kDa separation module (SMW004), anti-rabbit HRP detection ([…]-001), and total protein detection modules (DM-TP01, biotin labeling reagent 042-973) according to the manufacturer's instructions, and with anti-PGRN primary (Abcam ab208777) diluted 1:50 in milk-free antibody dilution buffer (043-524). […] All intensity quantifications are normalized to the total protein assay quantification unless otherwise indicated. NPCs were cultured normally in 6-well plates as described previously. Upon reaching confluency, DMSO or MLN-4924 (Cayman #15,217, 10 mM stock in DMSO) were diluted 1:5000 into NPC media with growth factors. 1 mL of media was aspirated from the cell cultures, and 1 mL of MLN-4924 or DMSO dilutions were then added to respective wells (final well concentration: 1 μM MLN-4924 in select wells, 0.01% DMSO for all wells). Plates returned to the incubator. […] Plates returned to the incubator. After 4 h, to the indicated wells is directly added 1 μL 2 mM mivebresib (MedChem Express HY-100015) in DMSO for a final concentration of 1 μM, or 1 μL DMSO. All plates were returned to the incubator overnight. The next day, 24 h from the addition of mivebresib, plates were removed from the incubator, and all wells were washed with 2 mL PBS, and then lysed in 300 μL M-PER lysis buffer with protease inhibitors. Cells were allowed to lyse for 15 min at 4 °C with light nutation, and then lysate was transferred to a 1.5-mL Eppendorf tube which was then spun down at 20 k rcf at 4 °C for 10 min. 200 μL of supernatant was then transferred to a fresh, labeled Eppendorf rube, which was then stored at - 20 °C prior to further analysis. Sample concentration was quantified using the BCA assay as described above, and normalized to 250 μg/mL in M-PER lysis buffer prior to PGRN quantification using the Jess. NPCs were cultured normally as described previously. 6-well plates were seeded at 300,000 cells/well in 2 mL of NPC media with EGF, bFGF, and heparin as described above. Cells were allowed to grow to confluency for three nights at 37 °C with 5% CO2. […] These solutions were then diluted 1:10 in NPC media with growth factors containing 0.2% DMSO to make 100 nM compound solutions. Treatment wells were washed with 2 mL PBS prior to addition of 2 mL NPC media with growth factors containing compound (or DMSO only) at indicated concentrations (3 replicates per condition, 6 DMSO replicates). Plates were then allowed to incubate at 37 °C with 5% CO2 for 24 h. After 24 h, cells were removed from the incubator, washed with 1 mL PBS, and then lysed with 500 μL M-PER lysis buffer (Thermo Fisher #78,501) with 1 cOmplete Mini, EDTA-free protease inhibitor added (Sigma-Aldrich#11,836,170,001) per 15 mL lysis buffer. Plates were allowed to nutate at 4 °C for 15 min before transferring the lysate to 1.5 mL Eppendorf tubes, which were then spun down at 20,000 rcf at 4 °C for 10 min. 400 μL of the supernatant was then transferred to fresh 1.5-mL Eppendorf tubes, which were then frozen down at - 80 °C prior to further use. Samples were removed from the - 80 °C and concentrations were determined via BCA assay (Thermo Scientific #23,227) using a pre-diluted BSA standard (Life Technologies #23,208) on a 96-well polystyrene plate (Thermo Fisher #12,565,500). Samples were diluted to 0.25 mg/mL using M-PER lysis buffer prior to PGRN quantification using the Jess. NPCs were cultured as described above, and seeded onto coated 24-well plates at 150,000 cells/well in 1 mL NPC media with growth factors. Plates were allowed to grow to ~ 100% confluency for three nights at 37 °C with 5% CO2. […] Plates were allowed to incubate overnight at 37 °C with 5% CO2 for 24 h. […]

Row | Compound | GRN Fold-change (Norm. to GAPDH) ± Std. Error ([1]; dose 10 µM) | other results
1 | CN(C)Cc1c(C(=O)NCCOc2ccc(C(=O)NO)cc2)oc2ccccc12 [PCI-24781] |  | GRN Fold-change (Norm. to GAPDH) ± Std. Error ([1]; dose 1 µM): 3.68 ± 0.27
2 | CC(=O)Nc1ccc(C(=O)Nc2ccccc2N)cc1 [CI-994] |  | enhancement of secreted PGRN-Luc signal [2]: either weakly or entirely unable to enhance secreted PGRN
3 | CCn1cc(-c2ccnc3[nH]c(-c4cccc(CN(C)C)c4)cc23)c(-c2ccc(NC(=O)N(C)C)cc2)n1 [GSK1070916] |  | GRN Fold-change (Norm. to GAPDH) ± Std. Error ([1]; dose 1 µM): 1.45 ± 0
4 | CCOC(=O)Nc1cc(-c2ccc(C)c(NS(C)(=O)=O)c2)nn2c(C)nnc12 [Bromosporine, bromosporine] | 3.44 ± 0.25 | GRN Fold-change (Norm. to GAPDH) ± Std. Error ([1]; dose 10 µM, listed as bromosporine): active enhancers of GRN mRNA
5 | CC(/C=C/C(=O)NO)=C\[C@@H](C)C(=O)c1ccc(N(C)C)cc1 [trichostatin A] |  | enhancement of internal PGRN-Luc signal [2]: able to enhance both internal and secreted PGRN at sub-µM concentrations; enhancement of secreted PGRN-Luc signal [2]: able to enhance both internal and secreted PGRN at sub-µM concentrations
6 | COCc1nc2cnc3cc(-c4c(C)noc4C)c(OC[C@H]4CCNC4)cc3c2n1[C@H](C)c1ccccc1 [iBET-BD1] |  | enhancement of PGRN protein levels [3]: unable to enhance PGRN protein levels
7 | O=C(CCCCC[C@@H]1NC(=O)[C@H]2CCCCN2C(=O)[C@H](Cc2ccccc2)NC(=O)[C@H](Cc2ccccc2)NC1=O)C1CO1 (stereo partly shown) [trapoxin A] (cyclo(FF[dPip][Aoe(9ξ)])) |  | enhancement of internal PGRN-Luc signal [2]: able to enhance both internal and secreted PGRN at sub-µM concentrations; enhancement of secreted PGRN-Luc signal [2]: able to enhance both internal and secreted PGRN at sub-µM concentrations
8 | COC1CCC(C(=O)c2ccc3nc4c(cc3c2)CCCO4)CC1 (stereo not shown) [JNJ16259685] | 1.00 ± 0.10 | 
9 | Cn1cc(-c2ccncc2)c(-c2ccc(OCc3ccc4ccccc4n3)cc2)n1 [PF-2545920] | 1.29 ± 0.16 | 
10 | Cc1c(OCC(F)(F)F)ccnc1C[S+]([O-])c1nc2ccccc2[nH]1 (stereo not shown) [Lanosoprazole] | 1.37 ± 0.23 | 
11 | Cc1c[nH]c(-c2cnc(NCCNc3ccc(C#N)cn3)nc2-c2ccc(Cl)cc2Cl)n1 [CHIR-99021] | 0.79 ± 0.06 | 
12 | CCNC(=O)c1cc2c(-c3cc(C(C)(C)O)ccc3Oc3c(C)cc(F)cc3C)cn(C)c(=O)c2[nH]1 [ABBV-744] |  | enhancement of PGRN protein levels [3]: ~ 30%; PGRN protein levels, dose-response ([3]; various doses): mid to high nM concentrations were sufficient to enhance PGRN protein levels
13 | O=C(CCCCCCNC(=O)c1cnc(N(c2ccccc2)c2ccccc2)nc1)NO [ACY-1215] | 3.63 ± 0.57 | 
14 | NNCCc1ccc(NC(=O)CCCc2ccccc2)cc1 [Bizine] | 0.92 ± 0.12 | 
15 | c1ccc([C@@H]2C[C@H]2NC2CCNCC2)cc1 [GSK-LSD1] | 0.96 ± 0.11 | 
16 | COc1cc2nc(N3CCCN(C)CC3)nc(NC3CCN(Cc4ccccc4)CC3)c2cc1OC [BIX01294] |  | GRN Fold-change (Norm. to GAPDH) ± Std. Error ([1]; dose 1 µM): 0.80 ± 0.04
17 | O=C(NC1CC1)c1cc(-c2cccs2)on1 [Compound Z220650400] | 1.17 ± 0.10 | 
18 | CCOC(=O)CCNc1cc(N2CCc3ccccc3CC2)nc(-c2ccccn2)n1 [GSK-J4] | 0.76 ± 0.03 | 
19 | N#CC[C@H](C1CCCC1)n1cc(-c2ncnc3[nH]ccc23)cn1 [Ruxolitinib] | 1.26 ± 0.04 | 
20 | Cc1cc(C)c(CNC(=O)c2cc(-c3ccc(CN4CCOCC4)cc3)cc3c2cnn3C2CCCC2)c(=O)[nH]1 [EPZ005687] | 1.18 ± 0.10 | 
21 | O=C(Nc1c(Cl)cncc1Cl)c1ccc(OC(F)F)c(OCC2CC2)c1 [Roflumilast] | 1.01 ± 0.09 | 
22 | CNC(=O)Oc1ccc2c(c1)[C@]1(C)CCN(C)[C@@H]1N2C [Eserine] |  | GRN Fold-change (Norm. to GAPDH) ± Std. Error ([1]; dose 25 µM): 0.73 ± 0.15
23 | (-)-Eseroline fumarate | 1.10 ± 0 | GRN Fold-change (Norm. to GAPDH) ± Std. Error ([1]; dose 25 µM): 0.79 ± 0.46
